# Experimental data reported in US20250120967A1, “TYROSINE KINASES INHIBITORS AND USES THEREOF” (GREAT NOVEL THERAPEUTICS BIOTECH & MEDICALS CORPORATION, priority 2023, published 2025).
# Key:
# Test in all cases: Tyrosine kinase inhibition assay
# Assay type in all cases: biochemical
# ERBB2 (HER2) = ERBB2 (HER2) (Homo sapiens, UniProt P04626); conditions: single concentration 1.0 μM, read-out: percent inhibition
# In short: (§1)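 Values are percent inhibition at 1.0 μM compound, with inhibition above 80% defined as a hit. Peptide substrate phosphorylation was assessed by Z′-LYTE at apparent-Km ATP in HEPES pH 7.5 buffer containing MgCl2, EGTA and BRIJ-35.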
# MAPK10 (JNK3) = MAPK10 (JNK3) (Homo sapiens, UniProt P53779); conditions: single concentration 1.0 μM, read-out: percent inhibition
# In short: as §1
# JAK1 = JAK1 (Homo sapiens, UniProt P23458); conditions: single concentration 1.0 μM, read-out: percent inhibition
# In short: as §1
# IGF1R = IGF1R (Homo sapiens, UniProt P08069); conditions: single concentration 1.0 μM, read-out: percent inhibition
# In short: as §1
# TYK2 = TYK2 (Homo sapiens, UniProt P29597); conditions: single concentration 1.0 μM, read-out: percent inhibition
# In short: as §1
# AKT1 (PKB alpha) = AKT1 (PKB alpha) (Homo sapiens, UniProt P31749); conditions: single concentration 1.0 μM, read-out: percent inhibition
# In short: as §1
# AKT3 (PKB gamma) = AKT3 (PKB gamma) (Homo sapiens, UniProt Q9Y243); conditions: single concentration 1.0 μM, read-out: percent inhibition
# In short: as §1
# BRAF V599E = BRAF V599E (Homo sapiens, UniProt P15056, V600E); conditions: single concentration 1.0 μM, read-out: percent inhibition
# In short: as §1
# [1] = target: PIK3CB/PIK3R1 (p110 beta/p85 alpha) (Homo sapiens, UniProt P42338); conditions: single concentration 1.0 μM, read-out: percent inhibition
# In short: as §1
# PIK3C2A (PI3K-C2 alpha) = PIK3C2A (PI3K-C2 alpha) (Homo sapiens, UniProt O00443); conditions: single concentration 1.0 μM, read-out: percent inhibition
# In short: as §1
# EPHA8 = target: T1, EPHA8 (Homo sapiens, UniProt P29322); conditions: single concentration 1.0 μM, read-out: percent inhibition
# T1 sequence (P29322 28-1005): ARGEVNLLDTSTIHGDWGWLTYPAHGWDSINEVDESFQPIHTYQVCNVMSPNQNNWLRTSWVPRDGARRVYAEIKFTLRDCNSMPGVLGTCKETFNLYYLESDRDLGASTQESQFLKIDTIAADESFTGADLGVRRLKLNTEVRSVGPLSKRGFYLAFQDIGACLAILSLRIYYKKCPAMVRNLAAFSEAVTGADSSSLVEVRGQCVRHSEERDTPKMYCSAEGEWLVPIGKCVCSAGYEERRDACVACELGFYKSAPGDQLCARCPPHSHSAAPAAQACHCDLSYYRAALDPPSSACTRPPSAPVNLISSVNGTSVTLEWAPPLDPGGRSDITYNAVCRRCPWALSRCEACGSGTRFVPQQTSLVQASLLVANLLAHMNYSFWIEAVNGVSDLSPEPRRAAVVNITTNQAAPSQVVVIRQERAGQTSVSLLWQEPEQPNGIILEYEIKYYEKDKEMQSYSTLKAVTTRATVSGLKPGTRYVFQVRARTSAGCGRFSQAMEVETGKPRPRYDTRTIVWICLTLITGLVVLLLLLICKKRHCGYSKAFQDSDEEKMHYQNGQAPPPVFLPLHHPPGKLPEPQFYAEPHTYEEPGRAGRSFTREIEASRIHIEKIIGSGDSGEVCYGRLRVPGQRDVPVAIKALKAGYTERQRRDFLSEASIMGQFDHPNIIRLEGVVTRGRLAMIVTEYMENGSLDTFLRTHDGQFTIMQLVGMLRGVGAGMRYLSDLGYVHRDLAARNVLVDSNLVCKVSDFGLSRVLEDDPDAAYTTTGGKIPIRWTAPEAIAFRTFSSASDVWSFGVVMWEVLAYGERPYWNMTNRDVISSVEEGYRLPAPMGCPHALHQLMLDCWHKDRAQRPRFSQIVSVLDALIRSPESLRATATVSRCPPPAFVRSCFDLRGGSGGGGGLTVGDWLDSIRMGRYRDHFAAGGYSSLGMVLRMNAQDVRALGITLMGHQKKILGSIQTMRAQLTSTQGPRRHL
# In short: as §1
# FYN = conditions: single concentration 1.0 μM
# In short: as §1
# BRAF V599E, sequence (P15056 whole entry V600E): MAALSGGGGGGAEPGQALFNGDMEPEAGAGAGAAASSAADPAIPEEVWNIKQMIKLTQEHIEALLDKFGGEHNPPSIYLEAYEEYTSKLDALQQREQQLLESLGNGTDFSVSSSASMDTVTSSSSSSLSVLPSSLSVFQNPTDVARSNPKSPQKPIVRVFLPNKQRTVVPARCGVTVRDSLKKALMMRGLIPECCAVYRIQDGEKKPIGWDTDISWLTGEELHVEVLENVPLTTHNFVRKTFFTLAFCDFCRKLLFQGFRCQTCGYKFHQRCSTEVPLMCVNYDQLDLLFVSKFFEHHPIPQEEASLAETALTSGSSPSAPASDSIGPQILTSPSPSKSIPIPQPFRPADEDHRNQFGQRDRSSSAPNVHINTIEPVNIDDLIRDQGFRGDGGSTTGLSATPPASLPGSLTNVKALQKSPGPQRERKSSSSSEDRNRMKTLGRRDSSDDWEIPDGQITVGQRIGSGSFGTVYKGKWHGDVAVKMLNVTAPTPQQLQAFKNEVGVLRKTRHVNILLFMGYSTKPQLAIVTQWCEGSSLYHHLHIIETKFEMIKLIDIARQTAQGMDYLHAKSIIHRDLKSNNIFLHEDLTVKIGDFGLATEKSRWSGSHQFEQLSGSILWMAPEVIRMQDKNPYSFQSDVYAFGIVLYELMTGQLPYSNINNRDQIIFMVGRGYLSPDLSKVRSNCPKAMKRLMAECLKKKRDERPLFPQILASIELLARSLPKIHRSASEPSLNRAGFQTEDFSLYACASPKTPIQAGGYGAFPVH
# IGF1R, sequence (P08069 31-1367): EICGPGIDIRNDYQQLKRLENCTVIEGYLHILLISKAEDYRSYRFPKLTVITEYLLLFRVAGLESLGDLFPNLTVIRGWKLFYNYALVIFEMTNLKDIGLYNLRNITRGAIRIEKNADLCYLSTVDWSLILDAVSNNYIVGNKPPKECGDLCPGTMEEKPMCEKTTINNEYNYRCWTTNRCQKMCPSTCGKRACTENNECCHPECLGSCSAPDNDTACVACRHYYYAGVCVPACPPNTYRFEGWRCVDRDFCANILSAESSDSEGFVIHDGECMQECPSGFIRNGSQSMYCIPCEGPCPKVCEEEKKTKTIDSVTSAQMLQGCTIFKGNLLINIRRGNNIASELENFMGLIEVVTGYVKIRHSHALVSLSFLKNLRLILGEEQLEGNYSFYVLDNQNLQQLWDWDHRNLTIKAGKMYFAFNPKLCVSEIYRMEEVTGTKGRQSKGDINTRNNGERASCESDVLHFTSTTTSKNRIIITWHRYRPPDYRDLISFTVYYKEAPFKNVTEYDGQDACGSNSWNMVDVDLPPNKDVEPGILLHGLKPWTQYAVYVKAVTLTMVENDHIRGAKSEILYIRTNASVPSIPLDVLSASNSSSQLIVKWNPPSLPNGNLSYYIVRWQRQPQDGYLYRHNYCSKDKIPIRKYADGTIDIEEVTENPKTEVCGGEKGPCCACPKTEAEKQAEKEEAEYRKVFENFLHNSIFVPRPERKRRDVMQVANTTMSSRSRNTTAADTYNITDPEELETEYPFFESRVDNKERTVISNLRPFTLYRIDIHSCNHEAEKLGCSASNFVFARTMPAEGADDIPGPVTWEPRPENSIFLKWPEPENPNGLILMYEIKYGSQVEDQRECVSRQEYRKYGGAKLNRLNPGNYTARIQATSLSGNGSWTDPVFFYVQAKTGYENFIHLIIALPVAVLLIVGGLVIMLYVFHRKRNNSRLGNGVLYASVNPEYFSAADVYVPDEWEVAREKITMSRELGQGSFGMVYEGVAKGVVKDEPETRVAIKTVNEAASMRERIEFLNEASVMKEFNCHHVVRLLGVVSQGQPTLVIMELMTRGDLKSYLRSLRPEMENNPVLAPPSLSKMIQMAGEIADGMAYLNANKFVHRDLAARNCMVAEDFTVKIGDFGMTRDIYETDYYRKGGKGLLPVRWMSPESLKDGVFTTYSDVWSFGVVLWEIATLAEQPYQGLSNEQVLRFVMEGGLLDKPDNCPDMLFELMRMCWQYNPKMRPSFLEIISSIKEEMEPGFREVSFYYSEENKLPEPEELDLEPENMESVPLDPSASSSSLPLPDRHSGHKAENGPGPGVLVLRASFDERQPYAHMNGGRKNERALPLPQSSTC
# PIK3CB/PIK3R1 (p110 beta/p85 alpha), sequence (P42338 whole entry): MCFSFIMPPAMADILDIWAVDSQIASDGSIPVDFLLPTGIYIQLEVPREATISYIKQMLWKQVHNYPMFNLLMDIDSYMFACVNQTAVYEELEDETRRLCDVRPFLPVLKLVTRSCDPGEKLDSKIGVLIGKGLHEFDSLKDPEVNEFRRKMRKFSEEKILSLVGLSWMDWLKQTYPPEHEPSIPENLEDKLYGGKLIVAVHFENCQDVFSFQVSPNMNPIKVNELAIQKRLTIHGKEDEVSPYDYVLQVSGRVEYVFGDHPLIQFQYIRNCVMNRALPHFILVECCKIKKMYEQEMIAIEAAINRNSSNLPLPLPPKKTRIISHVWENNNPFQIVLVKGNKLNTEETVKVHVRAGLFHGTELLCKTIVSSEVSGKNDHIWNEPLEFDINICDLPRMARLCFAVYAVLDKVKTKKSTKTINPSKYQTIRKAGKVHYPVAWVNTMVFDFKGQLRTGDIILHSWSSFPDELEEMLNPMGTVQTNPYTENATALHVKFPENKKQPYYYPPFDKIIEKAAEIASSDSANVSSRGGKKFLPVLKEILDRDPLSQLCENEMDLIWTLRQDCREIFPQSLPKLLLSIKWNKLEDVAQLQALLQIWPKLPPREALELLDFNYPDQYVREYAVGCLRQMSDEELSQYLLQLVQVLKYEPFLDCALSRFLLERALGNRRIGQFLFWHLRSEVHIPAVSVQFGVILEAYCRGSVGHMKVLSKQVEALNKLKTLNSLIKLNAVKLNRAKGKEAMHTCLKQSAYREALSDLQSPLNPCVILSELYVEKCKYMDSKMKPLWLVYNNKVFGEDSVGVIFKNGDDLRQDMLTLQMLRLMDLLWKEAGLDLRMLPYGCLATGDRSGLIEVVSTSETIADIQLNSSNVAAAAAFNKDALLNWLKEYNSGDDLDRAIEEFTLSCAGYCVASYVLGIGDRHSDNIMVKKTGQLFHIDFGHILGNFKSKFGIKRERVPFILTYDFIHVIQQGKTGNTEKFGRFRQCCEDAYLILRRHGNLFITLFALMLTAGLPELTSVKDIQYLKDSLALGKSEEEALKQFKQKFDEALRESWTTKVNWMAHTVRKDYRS
# PIK3CB/PIK3R1 (p110 beta/p85 alpha), sequence (P27986 whole entry partner): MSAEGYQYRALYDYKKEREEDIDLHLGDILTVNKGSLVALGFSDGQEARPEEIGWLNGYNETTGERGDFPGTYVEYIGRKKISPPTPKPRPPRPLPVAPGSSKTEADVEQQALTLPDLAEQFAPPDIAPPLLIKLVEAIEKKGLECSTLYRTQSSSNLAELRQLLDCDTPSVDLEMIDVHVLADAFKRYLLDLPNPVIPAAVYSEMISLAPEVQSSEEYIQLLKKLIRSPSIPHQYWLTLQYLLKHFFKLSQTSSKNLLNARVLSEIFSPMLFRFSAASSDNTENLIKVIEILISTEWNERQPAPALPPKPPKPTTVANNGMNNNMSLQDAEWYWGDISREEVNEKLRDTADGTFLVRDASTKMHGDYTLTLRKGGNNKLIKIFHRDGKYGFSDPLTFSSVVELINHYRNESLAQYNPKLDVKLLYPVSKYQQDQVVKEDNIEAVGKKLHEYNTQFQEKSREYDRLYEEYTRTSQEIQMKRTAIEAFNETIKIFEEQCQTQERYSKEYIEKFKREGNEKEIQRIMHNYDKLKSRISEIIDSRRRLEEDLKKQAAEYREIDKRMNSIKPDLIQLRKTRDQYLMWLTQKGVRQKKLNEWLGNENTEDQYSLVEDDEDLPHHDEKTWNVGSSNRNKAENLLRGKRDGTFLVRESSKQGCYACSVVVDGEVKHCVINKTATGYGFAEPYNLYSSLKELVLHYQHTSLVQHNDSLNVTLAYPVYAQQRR
# MAPK10 (JNK3), sequence (P53779 whole entry): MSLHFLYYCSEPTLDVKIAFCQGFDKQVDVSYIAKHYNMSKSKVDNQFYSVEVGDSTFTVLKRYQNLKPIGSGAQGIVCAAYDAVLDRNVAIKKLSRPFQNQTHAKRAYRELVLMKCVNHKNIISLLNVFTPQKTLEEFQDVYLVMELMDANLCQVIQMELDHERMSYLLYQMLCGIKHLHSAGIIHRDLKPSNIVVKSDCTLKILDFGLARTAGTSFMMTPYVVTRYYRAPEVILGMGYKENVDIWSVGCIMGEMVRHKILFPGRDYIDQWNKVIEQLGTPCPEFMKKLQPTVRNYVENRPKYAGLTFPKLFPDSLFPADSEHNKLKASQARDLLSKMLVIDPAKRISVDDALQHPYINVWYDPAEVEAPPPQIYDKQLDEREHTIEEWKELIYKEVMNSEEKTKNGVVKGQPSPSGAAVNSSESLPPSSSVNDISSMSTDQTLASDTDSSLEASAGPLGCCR
# AKT3 (PKB gamma), sequence (Q9Y243 whole entry): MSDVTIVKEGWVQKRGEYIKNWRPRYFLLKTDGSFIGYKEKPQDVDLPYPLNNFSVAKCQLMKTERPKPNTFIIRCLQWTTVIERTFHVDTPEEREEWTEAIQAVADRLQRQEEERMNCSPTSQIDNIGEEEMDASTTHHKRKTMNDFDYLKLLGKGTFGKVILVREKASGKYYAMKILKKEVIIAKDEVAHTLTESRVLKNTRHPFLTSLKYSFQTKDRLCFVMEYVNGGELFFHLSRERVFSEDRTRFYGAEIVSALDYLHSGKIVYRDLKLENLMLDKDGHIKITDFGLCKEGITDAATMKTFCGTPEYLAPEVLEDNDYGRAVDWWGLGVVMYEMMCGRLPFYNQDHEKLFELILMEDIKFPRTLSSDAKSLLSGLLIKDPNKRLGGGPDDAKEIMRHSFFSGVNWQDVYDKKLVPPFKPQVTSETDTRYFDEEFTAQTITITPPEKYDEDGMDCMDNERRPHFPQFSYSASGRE
Compound,inhibition at 1 µM (ERBB2 (HER2)) [%],inhibition at 1 µM (MAPK10 (JNK3)) [%],inhibition at 1 µM (JAK1) [%],inhibition at 1 µM (IGF1R) [%],inhibition at 1 µM (TYK2) [%],inhibition at 1 µM (AKT1 (PKB alpha)) [%],inhibition at 1 µM (AKT3 (PKB gamma)) [%],inhibition at 1 µM (BRAF V599E) [%],inhibition at 1 µM [1] [%],inhibition at 1 µM (PIK3C2A (PI3K-C2 alpha)) [%],inhibition at 1 µM (EPHA8) [%],percent inhibition (FYN) [%]
"COc1cc2nccc(Oc3ccc(NC(=O)C4(C(=O)Nc5ccc(F)cc5)CC4)cc3)c2cc1OC [Cabozantinib, reference compound]",17,3,0,15,9,3,8,24,2,1,104,
"COc1cc2nccc(Oc3ccc(NC(=O)C4(NC(=O)c5ccc(F)cc5)CC4)cc3F)c2cc1OC [Cbo-02, N-(1-((4-((6,7-diMethoxyquinolin-4-yl)oxy)-3-fluorophenyl)carbamoyl)cyclopropyl)-4-fluorobenzamide]",50,4,1,13,7,2,5,1,3,1,42,16
COc1cc2nccc(Oc3ccc(NC(=O)C4(NC(=O)c5ccc(F)cc5)CC4)cc3F)c2cc1Oc1ccc(N)cc1F [Cbo-10],90,8,2,27,9,0,7,2,22,-1,76,35
COc1cc2nccc(Oc3ccc(NC(=O)C4(NC(=O)c5ccc(F)cc5)CC4)cc3F)c2cc1Oc1c(F)cc(N)cc1F [Cbo-14],90,4,1,35,16,2,6,-3,0,1,82,48
COc1cc2nccc(Oc3ccc(NC(=O)C4(C(=O)Nc5ccc(F)cc5)CC4)cc3F)c2cc1Oc1ccc(N)cc1F [Cbo-23],54,-3,4,52,7,4,-1,5,-4,-9,100,51
